Series [1] is described as follows: Mouse microsomal stability. The settings on record: microsomes, read-out: Mouse Microsomes T1/2. It counts as in vitro ADME.
Series [2] is described as follows: Metabolite identification studies. It counts as in vitro ADME. The settings on record: formed via removal of the cyclopropylmethyl moiety. An excerpt: In an attempt to improve the in vivo PK profile, we undertook a series of metabolite identification studies, to determine the key sites of metabolism on 1 and 2.
The test system of another series is CD-1 mice. Briefly: In vivo tolerability / toxicity observation during PK studies. The conditions noted are these: for Toxicity Observed / Time of onset of ataxia after oral dosing: mice; for Tolerability in vivo: oral doses from 5 mg/kg to 160 mg/kg; for Time of onset of ataxia after oral dosing: oral dosing arm, 5 mg/kg. The arrangement: species or system mouse. On the procedure: We therefore initiated a dose-escalation study to examine dose versus exposure of the compound. […] Our following study, with derivative 12, incorporated enhanced monitoring and here we observed the onset of ataxia shortly after the 5 h sampling time point, and exclusively in the oral dosing arm of the study, despite lower absolute and free drug exposures in these dosing arms.
(§1) Pharmacokinetics were studied in 6-8 week old male CD-1 mice following single intravenous or oral administration. Compounds were formulated as solutions comprising up to 10% DMSO with up to 10% Tween80 in saline at a concentration of approximately 1 mM. Doses were administered at 1 mg/kg (intravenous) or 5 mg/kg (oral gavage) unless otherwise stated. Blood samples were collected as dried blood spots (Agilent Bond Elut DMS cards) and assayed following solvent extraction using methanol, through a phospholipid removal plate (Phree phospholipid removal plates, Phenomenex) followed by LC-MS/MS analysis. The time-points for blood collection were as follows: oral (0.5, 1, 3, 5 and 24 h); intravenous (0.1, 0.25, 0.75, 2, 5 and 24 h). The resulting concentration-time data were analyzed by non-compartmental methods (PK Solver, Excel Add-In).

For series [3], the target named is T1, PARG (Homo sapiens, UniProt Q86W56). It is filed as cell-based. The settings on record: read-out: PARG Cell Assay.
Series [4] addresses T1, PARG. It counts as biochemical. The settings on record: read-out: PARG Enzyme Activity.
A short description of series [5]: In vivo pharmacokinetics in CD-1 mice. The arrangement: species or system mouse. The conditions noted are these: for In vivo half-life: initial in vivo PK studies; for Fold exposure relative to cell IC50: defined as [Cmax(free)]/Cell IC50. On the procedure:
as §1

Series [6] can be described thus: Human liver microsomal stability. The settings on record: liver microsomes, read-out: Human Microsomes T1/2. It counts as in vitro ADME. The text has this:
Table 1 Improvements to metabolic stability through cyclopropyl modification. | column: Human Microsomes T1/2 (minutes)

[7] abbreviates: geometric mean of at least two independent determinations.
The mark [8] stands for this setting: oral dose 5 (mg/kg), male CD-1 mice.

Molecules are shown by their SMILES. “Also recorded” adds a separate entry of the source. Where two headings read alike, the source gives them in different places.

T1 sequence (Q86W56 whole entry, species assumed): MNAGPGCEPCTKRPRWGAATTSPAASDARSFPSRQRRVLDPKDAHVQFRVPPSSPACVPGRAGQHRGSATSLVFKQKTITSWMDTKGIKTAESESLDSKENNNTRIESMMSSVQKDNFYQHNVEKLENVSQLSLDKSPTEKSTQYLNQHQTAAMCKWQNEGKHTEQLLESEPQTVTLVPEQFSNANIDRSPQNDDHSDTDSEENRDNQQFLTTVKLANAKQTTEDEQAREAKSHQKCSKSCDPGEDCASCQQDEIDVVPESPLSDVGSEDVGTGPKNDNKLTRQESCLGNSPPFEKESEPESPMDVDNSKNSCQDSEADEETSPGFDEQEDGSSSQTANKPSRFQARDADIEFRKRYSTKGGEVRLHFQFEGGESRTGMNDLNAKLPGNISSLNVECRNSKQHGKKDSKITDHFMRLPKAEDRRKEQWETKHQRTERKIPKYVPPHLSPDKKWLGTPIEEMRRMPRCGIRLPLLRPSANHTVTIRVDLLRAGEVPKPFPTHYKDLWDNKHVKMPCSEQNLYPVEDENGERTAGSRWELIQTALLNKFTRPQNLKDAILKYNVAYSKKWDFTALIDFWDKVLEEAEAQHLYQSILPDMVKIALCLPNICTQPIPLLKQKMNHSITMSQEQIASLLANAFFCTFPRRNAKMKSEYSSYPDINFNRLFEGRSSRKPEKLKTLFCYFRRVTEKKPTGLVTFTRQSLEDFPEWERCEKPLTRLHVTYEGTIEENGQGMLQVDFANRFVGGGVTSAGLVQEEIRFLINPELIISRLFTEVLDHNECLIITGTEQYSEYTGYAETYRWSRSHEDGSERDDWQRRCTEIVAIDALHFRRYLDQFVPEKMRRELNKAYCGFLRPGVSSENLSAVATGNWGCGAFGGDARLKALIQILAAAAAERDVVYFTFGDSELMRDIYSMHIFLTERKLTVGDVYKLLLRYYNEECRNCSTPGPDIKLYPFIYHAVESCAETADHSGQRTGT

As for `Cn1cc(Cn2c(=O)c3cc(S(=O)(=O)NC4(C)CC4)ccc3n(Cc3ccn(C)n3)c2=O)cn1` [Compound 1], the values for the half-life in series [1] and in series [6] were 22 min and 53 min, respectively. For the same compound, the Major metabolite result in series [2] is “primary sulphonamides 3 and 4”. For the same compound, the “Toxicity Observed” value with CD-1 mice (oral dose 5 (mg/kg)) and in the series on CD-1 mice (oral dose 160 (mg/kg)) was “No” each time. In the series on CD-1 mice, the Tolerability in vivo result is “well tolerated”. Further, the figures for the IC50 at PARG [3] (setting [7]) and at PARG [4] (setting [7]) were 90 nM and 20 nM, respectively. Also, the In vivo half-life result in series [5] (in words) is on record as “short half-lives”. For the same compound, the “Fold exposure relative to cell IC50” value in series [5] (setting [8]) amounted to 0.96; in series [5] (oral dose 160 (mg/kg), mice), 350.

On to `Cc1cc(Cn2c(=O)c3cc(S(=O)(=O)NC4(C)CC4)ccc3n(C)c2=O)on1` [Compound 2], for which the Major metabolite result in series [2] is “primary sulphonamides 3 and 4”. Further, the Tolerability in vivo result in the series with CD-1 mice is recorded as “well tolerated”. Also, the In vivo half-life result in series [5] (in words) is “short half-lives”.

Regarding `Cn1cc(Cn2c(=O)c3cc(S(=O)(=O)NC4(CF)CC4)ccc3n(Cc3ccn(C)n3)c2=O)cn1` [Compound 5], the results for the half-life in series [1] and in series [6] were 37 min and 82 min, respectively. In the series on CD-1 mice (oral dose 5 (mg/kg)), the “Toxicity Observed” value is “No”. Besides, the IC50 turned out to be 170 nM at PARG [3] (setting [7]) and 20 nM at PARG [4] (setting [7]). The In vivo clearance result in series [5] (mice, in words) is “very rapidly cleared after oral dosing; also recorded: high clearance”. Besides, the “Fold exposure relative to cell IC50” value in series [5] (setting [8]) is recorded as 0.18.

In the case of `Cn1cc(Cn2c(=O)c3cc(S(=O)(=O)NC4(C(F)F)CC4)ccc3n(Cc3ccn(C)n3)c2=O)cn1` [Compound 6], the half-life in series [1] amounted to 42 min; in series [6], 71 min. Also, the IC50 on PARG [3] (setting [7]) is 1250 nM; on PARG [4] (setting [7]), 320 nM.

With `Cn1cc(Cn2c(=O)c3cc(S(=O)(=O)NC4(C(F)(F)F)CC4)ccc3n(Cc3ccn(C)n3)c2=O)cn1` [Compound 7], the half-life was determined as 38 min in series [1] and 102 min in series [6]. The IC50 on PARG [3] (setting [7]) turned out to be 4100 nM; on PARG [4] (setting [7]), 3600 nM.

On to `[2H]C([2H])([2H])C1(NS(=O)(=O)c2ccc3c(c2)c(=O)n(Cc2cnn(C)c2)c(=O)n3Cc2ccn(C)n2)CC1` [Compound 8], for which the half-life turned out to be 18 min in series [1] and 34 min in series [6]. The values for the IC50 at PARG [3] (setting [7]) and on PARG [4] (setting [7]) were 70 nM and 30 nM, respectively.

For `CCn1c(=O)n(Cc2cnn(C)c2)c(=O)c2cc(S(=O)(=O)NC3(C)CC3)ccc21` [Compound 9], in series [1], the half-life was 47 min. In the series on CD-1 mice (oral dose 5 (mg/kg)), the “Toxicity Observed” value was “No”.

As to `CCn1c(=O)n(Cc2cnn(C)c2)c(=O)c2cc(S(=O)(=O)NC3(CF)CC3)ccc21` [Compound 10], the half-life in series [1] worked out at 102 min. In addition, the “Toxicity Observed” value with CD-1 mice (oral dose 5 (mg/kg)) was “well tolerated and No”; in the series with CD-1 mice (oral dose 10 (dose-escalation study)), “one animal was found dead on study; also recorded: liver toxicity was the probable cause of death”. Moreover, the IC50 was 80 nM at PARG [3] and 100 nM at PARG [4]. Further, the “Fold exposure relative to cell IC50” value in series [5] (setting [8]) amounted to 15.

For the compound `Cn1cc(Cn2c(=O)c3cc(S(=O)(=O)NC4(C)CC4)ccc3n(C)c2=O)cn1` [Compound 11], the half-life in series [1] was found to be 82 min. In the series on CD-1 mice (oral dose 5 (mg/kg)), the “Toxicity Observed” value is on record as “No”.

In the case of `Cn1cc(Cn2c(=O)c3cc(S(=O)(=O)NC4(CF)CC4)ccc3n(C)c2=O)cn1` [Compound 12], in series [1], the half-life was 285 min. Also, in the series on CD-1 mice (oral dose 5 (mg/kg)), the “Toxicity Observed” value is given as “Ataxia”. Besides, the “Time of onset of ataxia after oral dosing” value with CD-1 mice is given as over 5 h. The IC50 on PARG [3] turned out to be 290 nM; on PARG [4] it was 630 nM. Moreover, the “Total exposure and Cmax relative to compound 1” value in series [5] (in vivo, mice) is listed as “over four-fold lower”. Also, the “Fold exposure relative to cell IC50” value in series [5] (setting [8]) is 61.

For the compound `CCn1c(=O)n(Cc2cc(C)on2)c(=O)c2cc(S(=O)(=O)NC3(CF)CC3)ccc21` [Compound 13], the half-life in series [1] is 121 min. In addition, in the series with CD-1 mice (oral dose 5 (mg/kg)), the “Toxicity Observed” value is “Ataxia”. For the same compound, in the series on CD-1 mice, the “Time of onset of ataxia after oral dosing” value was over 5 h. The results for the IC50 on PARG [3] (setting [7]) and on PARG [4] (setting [7]) were 6600 nM and 1520 nM, respectively. In series [5] (setting [8]), the “Fold exposure relative to cell IC50” value amounted to 0.28.

The values are drawn from article PMC6376317, “Fluoromethylcyclopropylamine derivatives as potential in vivo toxicophores – A cautionary disclosure” (Bioorganic & Medicinal Chemistry Letters, 2019).
